According to PMC7591920, “A protein tertiary structure mimetic modulator of the Hippo signalling pathway” (Nature Communications, 2020):
Bridge positions count the residues as written; N and C are the ends. Square brackets hold non-standard residues; d marks the D form. Peptide text beside a SMILES is read from it. Orn = NCCC[C@H](N)C(=O)O

Assays:
GST-hTEAD1 = target: T1, GST-hTEAD1 (Homo sapiens, UniProt P28347); experiment: SPR binding to immobilised GST-hTEAD1; settings: GST-hTEAD1 amine-coupled on CM5, multi-cycle, steady-state fit 1:1 model, 10 mM HEPES 150 mM NaCl 0.05% Tween-20 pH 7.4, 0.3% DMSO, 20 °C, Fig. 1 values n = 1 replicate
T1 construct: CDNA of hTEAD1(209–426) fused with an N-terminal GST tag; made in house; host or cells: Escherichia coli BL21 DE3 RIL(K+)
Description: (§1) Sensor chips Series S CM5 (Research grade) were obtained from GE Healthcare. Prior to use, the sensor chips were equilibrated at room temperature for 15 min to prevent water condensation on the detector side of the sensor chip surface. A running buffer was prepared composed of 10 mM HEPES, 150 mM NaCl, and 0.05% (w/v) Tween-20, pH 7.4, and the system was equilibrated at 20 °C using a flow rate of 30 µL min^−1 after docking of the sensor chip. Ligand binding experiments have been performed applying the concept of multi-cycle kinetics. A contact time of 45 s was selected, followed by a 6-min dissociation phase to allow for complete dissociation of the analyte prior to the next cycle. […] Typically, seven concentrations of the analytes have been examined applying a threefold dilution pattern with 30 µM as top concentration. For the analysis, five running buffer blanks were injected to equilibrate the instrument. […] The carboxyl-dextran surface was activated for 7 min with 0.05 M NHS and 0.2 M EDC, followed by an injection of the proteins in 10 mM MES pH 6.4 at a concentration of 30–50 µg mL^−1. […] This was followed by a deactivation of the residual esters by injecting a solution of 0.5 M ethanolamine pH 8.0 for 7 min before engaging in ligand binding experiments. Reference surfaces were prepared accordingly, omitting the injection of protein over the activated reference surface.

[1] = system: primary juvenile (P5–P6) rat cardiomyocytes; experiment: Cell cycle activity assay (Ki67/αActinin) in juvenile rat cardiomyocytes; type: cell-based; settings: c = 10 µM, 4 days, relative to DMSO-treated cells (100), mean of N = 6
Description: One day after seeding, the cells were treated with test compounds of interest. Treatments were applied with an ECHO 520 acoustic dispenser (Labcyte) and medium was added to the wells. Four days after treatment, the cells were fixed with 4% formaldehyde (Roth) and immunostained in 0.2% Triton-X100 (Roth) in PBS (Gibco) supplemented with 5% FBS. […] Samples were then imaged and analysed on an ImageXpress XL automated microscope (Molecular Devices). Data are depicted as means ± SEM.

rat heart cells = experiment: Cell toxicity assessment on rat heart cells in culture; settings: c(peptide) = 10 µM
Description: whole heart cells monitored by fluorescence microscopy after 90 minutes treatments (scale bar: 25 µm), number of […]
4E as well as control compounds (SB203580, CHIR99021) on rat heart cells in culture (c(peptide) = 10 µM). Number of independent biological replicates: n = 6, error bars = SEM. […]
cytometry analysis of live cells after 90 min incubation at 5 µM: Representative histogram plot, (-) DMSO control). Source data are provided as a Source Data file.
(1 picture or pasted object on this page, not shown here)

mTEAD4 [2] = target: T2, mTEAD4 (Mus musculus, UniProt Q62296); experiment: SPR binding to immobilised mTEAD4; settings: mTEAD4 amine-coupled on CM5, multi-cycle, steady-state fit 1:1 model, 10 mM HEPES 150 mM NaCl 0.05% Tween-20 pH 7.4, 0.3% DMSO, 20 °C, Fig. 1 values n = 1 replicate
T2 construct: Mouse TEAD4(210–427) cDNA fused with a 6x His-tag and a 3C protease cleavage site; 6x His-tag; 3C protease cleavage site; made in house; host or cells: E. coli BL21 DE3 RIL(K+)
Description: as §1

mTEAD4 [3] = target: T2, mTEAD4; experiment: Competition fluorescence polarization with mTEAD4 (alanine scan); type: binding; settings: Ac-peptide vs FITC-labelled tracer peptide 10 nM, mTEAD4 400 nM, 1 h
Description: Competition FP: N-terminally acetylated peptides were diluted 1:1 in a 384-well plate (5 μL, 75 μM−9 pM). Ten microlitres of a mixture (1:1) of mTEAD4 and FITC-labelled peptide was added (final concentrations: acetylated peptides = 50 μM−6 pM; mTEAD4 protein = 400 nM; FITC-labelled tracer peptide = 10 nM). After 1 h, FP was measured (λ(ex) = […]). IC50 was determined from the binding curve with GraphPad from Prism.

T2 sequence (Q62296 210-427): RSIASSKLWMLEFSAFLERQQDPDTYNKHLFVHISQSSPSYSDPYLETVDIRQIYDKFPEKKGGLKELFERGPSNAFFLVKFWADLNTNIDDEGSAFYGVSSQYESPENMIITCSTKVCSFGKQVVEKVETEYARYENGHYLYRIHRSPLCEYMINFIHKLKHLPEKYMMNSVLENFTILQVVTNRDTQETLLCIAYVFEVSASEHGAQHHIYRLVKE
T1 sequence (P28347 209-426): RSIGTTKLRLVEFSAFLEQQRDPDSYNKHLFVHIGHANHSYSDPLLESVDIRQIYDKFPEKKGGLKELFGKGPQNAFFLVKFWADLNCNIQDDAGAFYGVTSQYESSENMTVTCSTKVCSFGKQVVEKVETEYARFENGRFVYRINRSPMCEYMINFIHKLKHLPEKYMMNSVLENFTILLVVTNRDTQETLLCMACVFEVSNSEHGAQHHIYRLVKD

Row | Kd (GST-hTEAD1) [µM] | Kd (mTEAD4 [2]) [µM] | Structure (SMILES) | also measured
1 | 1.5 | – | CC[C@H](C)[C@@H]1NC(=O)[C@H](CCC(N)=O)NC(=O)[C@H](CC(C)C)NC(=O)[C@H](Cc2c[nH]c3ccccc23)NC(=O)[C@H]([C@@H](C)O)NC(=O)[C@H](CC(=O)O)NC(=O)CNC(=O)[C@H](CC(C)C)NC(=O)[C@H](C)NC(=O)[C@H](CCCCN)NC(=O)[C@H](C)NC(=O)[C@H](Cc2ccccc2)NC(=O)[C@H](Cc2c[nH]cn2)NC(=O)[C@H](CC(=O)O)NC(=O)[C@@H](NC(=O)[C@@H](NC(=O)[C@H](CO)NC(C)=O)C(C)C)CCC(=O)NCCC[C@@H](C(=O)N[C@@H](C)C(=O)N[C@@H](C)C(N)=O)NC1=O [4D] (Ac-SVEDHFAKALGDTWLQI[Orn]AA-NH2; lactam 3-18) | –
2 | – | – | Cc1c[nH]c(-c2cnc(NCCNc3ccc(C#N)cn3)nc2-c2ccc(Cl)cc2Cl)n1 [CHIR99021, reference compound] | Cell cycle activity, MEAN [1]: 152.398; Total cell number (% DMSO control) (rat heart cells; raw data replicate 1): 164.318 % DMSO control; Total cell number (% DMSO control) (rat heart cells; raw data replicate 2): 154.314 % DMSO control; Total cell number (% DMSO control) (rat heart cells; raw data replicate 3): 186.382 % DMSO control; Total cell number (% DMSO control) (rat heart cells; raw data replicate 4): 116.435 % DMSO control; Total cell number (% DMSO control) (rat heart cells; raw data replicate 5): 128.897 % DMSO control; Total cell number (% DMSO control) (rat heart cells; raw data replicate 6): 164.042 % DMSO control
3 | – | – | C[S+]([O-])c1ccc(-c2nc(-c3ccncc3)c(-c3ccc(F)cc3)[nH]2)cc1 (centres unmarked) [SB203580, reference compound] | Cell cycle activity, MEAN [1]: 122.95
4 | 19.4 | 21.8 | CC(=O)N[C@@H](CC(=O)O)C(=O)N1CCC[C@H]1C(=O)N[C@H](C(=O)N[C@H](C(=O)N[C@@H](CCC(=O)O)C(=O)N[C@@H](CCC(=O)O)C(=O)N[C@@H](Cc1c[nH]cn1)C(=O)N[C@@H](Cc1ccccc1)C(=O)N[C@@H](CCCNC(=N)N)C(=O)N[C@@H](CCCNC(=N)N)C(=O)N[C@@H](CO)C(=O)N[C@@H](CC(C)C)C(=O)NCC(=O)N[C@@H](CCCCN)C(=O)N[C@@H](CC(N)=O)C(=O)N[C@@H](Cc1ccc(O)cc1)C(N)=O)C(C)C)C(C)C [compound 2] (Ac-DPVVEEHFRRSLGKNY-NH2) | –
5 | > 100 | > 100 | CC[C@H](C)[C@H](NC(=O)[C@H](CO)NC(=O)[C@@H](NC(=O)[C@H](CO)NC(=O)[C@H](CC(N)=O)NC(=O)[C@@H]1CCCN1C(=O)[C@H](C)NC(=O)[C@@H]1CCCN1C(=O)[C@H](CCC(=O)O)NC(=O)[C@@H]1CCCN1C(=O)[C@H](CCC(=O)O)NC(=O)[C@H](CCCCN)NC(C)=O)C(C)C)C(=O)N[C@H](C(=O)NCC(N)=O)[C@@H](C)O [compound 3] (Ac-KEPEPAPNSVSITG-NH2) | –
6 | > 100 | > 100 | CC[C@H](C)[C@H](NC(=O)[C@H](CCC(N)=O)NC(=O)[C@H](CC(C)C)NC(=O)[C@H](Cc1c[nH]c2ccccc12)NC(=O)[C@@H](NC(=O)[C@H](CC(=O)O)NC(C)=O)[C@@H](C)O)C(=O)N[C@@H](CCCCN)C(=O)N[C@@H](C)C(=O)N[C@@H](C)C(N)=O [compound 6] (Ac-DTWLQIKAA-NH2) | –
7 | 17 | 12 | CC[C@H](C)[C@H](NC(=O)[C@H](CCC(N)=O)NC(=O)[C@H](CC(C)C)NC(=O)[C@H](Cc1c[nH]c2ccccc12)NC(=O)[C@@H](NC(=O)[C@H](CC(=O)O)NC(=O)CNC(=O)[C@H](CC(C)C)NC(=O)[C@H](C)NC(=O)[C@H](CCCCN)NC(=O)[C@H](C)NC(=O)[C@H](Cc1ccccc1)NC(=O)[C@H](Cc1c[nH]cn1)NC(=O)[C@H](CC(=O)O)NC(=O)[C@H](CC(=O)O)NC(=O)[C@@H](NC(=O)[C@H](CO)NC(C)=O)C(C)C)[C@@H](C)O)C(=O)N[C@@H](C)C(=O)N[C@@H](C)C(=O)N[C@@H](C)C(N)=O [compound 13] (Ac-SVDDHFAKALGDTWLQIAAA-NH2) | –
8 | 1.5 ± 0.02 | – | CC[C@H](C)[C@@H]1NC(=O)[C@H](CCC(N)=O)NC(=O)[C@H](CC(C)C)NC(=O)[C@H](Cc2c[nH]c3ccccc23)NC(=O)[C@H]([C@@H](C)O)NC(=O)[C@H](CC(=O)O)NC(=O)CNC(=O)[C@H](CC(C)C)NC(=O)[C@H](C)NC(=O)[C@H](CCCCN)NC(=O)[C@H](C)NC(=O)[C@H](Cc2ccccc2)NC(=O)[C@H](Cc2c[nH]cn2)NC(=O)[C@H](CC(=O)O)NC(=O)[C@@H](NC(=O)[C@@H](NC(=O)[C@H](C)NC(C)=O)C(C)C)CCC(=O)NCCCC[C@@H](C(=O)N[C@@H](C)C(=O)N[C@@H](C)C(N)=O)NC1=O [compound 14] (Ac-AVEDHFAKALGDTWLQIKAA-NH2; lactam 3-18) | –
9 | > 100 | > 100 | CC[C@H](C)[C@@H]1NC(=O)[C@H](CCC(N)=O)NC(=O)[C@H](CC(C)C)NC(=O)[C@H](Cc2c[nH]c3ccccc23)NC(=O)[C@H]([C@@H](C)O)NC(=O)[C@H](CC(=O)O)NC(=O)CNC(=O)[C@H](CC(C)C)NC(=O)[C@H](C)NC(=O)[C@H](CCCCN)NC(=O)[C@H](C)NC(=O)[C@H](Cc2ccccc2)NC(=O)[C@H](C)NC(=O)[C@H](CC(=O)O)NC(=O)[C@@H](NC(=O)[C@@H](NC(=O)[C@H](CO)NC(C)=O)C(C)C)CCC(=O)NCCCC[C@@H](C(=O)N[C@@H](C)C(=O)N[C@@H](C)C(N)=O)NC1=O [compound 17] (Ac-SVEDAFAKALGDTWLQIKAA-NH2; lactam 3-18) | IC50 (mTEAD4 [3]): > 100 µM
10 | 1.7 ± 0.01 | – | CC[C@H](C)[C@@H]1NC(=O)[C@H](CCC(N)=O)NC(=O)[C@H](CC(C)C)NC(=O)[C@H](Cc2c[nH]c3ccccc23)NC(=O)[C@H]([C@@H](C)O)NC(=O)[C@H](CC(=O)O)NC(=O)CNC(=O)[C@H](CC(C)C)NC(=O)[C@H](C)NC(=O)[C@H](C)NC(=O)[C@H](C)NC(=O)[C@H](Cc2ccccc2)NC(=O)[C@H](Cc2c[nH]cn2)NC(=O)[C@H](CC(=O)O)NC(=O)[C@@H](NC(=O)[C@@H](NC(=O)[C@H](CO)NC(C)=O)C(C)C)CCC(=O)NCCCC[C@@H](C(=O)N[C@@H](C)C(=O)N[C@@H](C)C(N)=O)NC1=O [compound 19] (Ac-SVEDHFAAALGDTWLQIKAA-NH2; lactam 3-18) | –
11 | – | 113 ± 3.5 | CC[C@H](C)[C@@H]1NC(=O)[C@H](CCC(N)=O)NC(=O)[C@H](CC(C)C)NC(=O)[C@H](Cc2c[nH]c3ccccc23)NC(=O)[C@H](C)NC(=O)[C@H](CC(=O)O)NC(=O)CNC(=O)[C@H](CC(C)C)NC(=O)[C@H](C)NC(=O)[C@H](CCCCN)NC(=O)[C@H](C)NC(=O)[C@H](Cc2ccccc2)NC(=O)[C@H](Cc2c[nH]cn2)NC(=O)[C@H](CC(=O)O)NC(=O)[C@@H](NC(=O)[C@@H](NC(=O)[C@H](CO)NC(C)=O)C(C)C)CCC(=O)NCCCC[C@@H](C(=O)N[C@@H](C)C(=O)N[C@@H](C)C(N)=O)NC1=O [compound 22] (Ac-SVEDHFAKALGDAWLQIKAA-NH2; lactam 3-18) | IC50 (mTEAD4 [3]): > 100 µM
12 | – | 15 ± 0.85 | CC[C@H](C)[C@@H]1NC(=O)[C@H](CCC(N)=O)NC(=O)[C@H](CC(C)C)NC(=O)[C@H](C)NC(=O)[C@H]([C@@H](C)O)NC(=O)[C@H](CC(=O)O)NC(=O)CNC(=O)[C@H](CC(C)C)NC(=O)[C@H](C)NC(=O)[C@H](CCCCN)NC(=O)[C@H](C)NC(=O)[C@H](Cc2ccccc2)NC(=O)[C@H](Cc2c[nH]cn2)NC(=O)[C@H](CC(=O)O)NC(=O)[C@@H](NC(=O)[C@@H](NC(=O)[C@H](CO)NC(C)=O)C(C)C)CCC(=O)NCCCC[C@@H](C(=O)N[C@@H](C)C(=O)N[C@@H](C)C(N)=O)NC1=O [compound 23] (Ac-SVEDHFAKALGDTALQIKAA-NH2; lactam 3-18) | IC50 (mTEAD4 [3]): > 50 µM
